In paper PMC10924921, “Mi-2β promotes immune evasion in melanoma by activating EZH2 methylation” (Nature Communications, 2024):

Experiments:
Experiment in all cases: biochemical
Parameters in all cases: KINOMEscan active-site competition binding panel (468 kinase assays), per cent of control at 1000 nM
Settings in all cases: KINOMEscan per cent of control (binding competition); read-out: Percent Control
CTK = biological target: T1, CTK (Homo sapiens, UniProt P42679)
T1 construct: gene MATK
Description: (§1) Figure S7 / Percent Control

SNRK = SNRK (Homo sapiens, UniProt Q9NRH2)
Description: as §1

BRAF = BRAF (Homo sapiens, UniProt P15056)
Description: as §1

BRK = biological target: T2, BRK (Homo sapiens, UniProt Q13882)
T2 construct: gene PTK6
Description: as §1

MAP3K4 = MAP3K4 (Homo sapiens, UniProt Q9Y6R4)
Description: as §1

KIT-autoinhibited = KIT-autoinhibited (Homo sapiens, UniProt P10721)
Description: as §1

[1] = biological target: T3, RSK2(Kin.Dom.2-C-terminal) (Homo sapiens, UniProt P51812)
T3 construct: gene RPS6KA3; Kin.Dom.2-C-terminal
Description: as §1

PRKCI = PRKCI (Homo sapiens, UniProt P41743)
Description: as §1

CAMK4 = CAMK4 (Homo sapiens, UniProt Q16566)
Description: as §1

S6K1 = biological target: T4, S6K1 (Homo sapiens, UniProt P23443)
T4 construct: gene RPS6KB1
Description: as §1

MEK3 = biological target: T5, MEK3 (Homo sapiens, UniProt P46734)
T5 construct: gene MAP2K3
Description: as §1

ERK5 = biological target: T6, ERK5 (Homo sapiens, UniProt Q13164)
T6 construct: gene MAPK7
Description: as §1

RIPK4 = RIPK4 (Homo sapiens, UniProt P57078)
Description: as §1

IGF1R = IGF1R (Homo sapiens, UniProt P08069)
Description: as §1

FES = FES (Homo sapiens, UniProt P07332)
Description: as §1

MYLK = MYLK (Homo sapiens, UniProt Q15746)
Description: as §1

DCAMKL2 = biological target: T7, DCAMKL2 (Homo sapiens, UniProt Q8N568)
T7 construct: gene DCLK2
Description: as §1

BRAF(V600E) = BRAF(V600E) (Homo sapiens, UniProt P15056, V600E)
Description: as §1

ROCK2 = ROCK2 (Homo sapiens, UniProt O75116)
Description: as §1

[2] = biological target: T8, ABL1(T315I)-nonphosphorylated (Homo sapiens, UniProt P00519, T315I)
T8 construct: nonphosphorylated
Description: as §1

AURKB = AURKB (Homo sapiens, UniProt Q96GD4)
Description: as §1

ACVR1 = ACVR1 (Homo sapiens, UniProt Q04771)
Description: as §1

GCN2(Kin.Dom.2,S808G) = biological target: T9, GCN2(Kin.Dom.2,S808G) (Homo sapiens, UniProt Q9P2K8, S808G)
T9 construct: gene EIF2AK4; Kin.Dom.2
Description: as §1

PIM2 = PIM2 (Homo sapiens, UniProt Q9P1W9)
Description: as §1

MYLK, sequence (Q15746 whole entry): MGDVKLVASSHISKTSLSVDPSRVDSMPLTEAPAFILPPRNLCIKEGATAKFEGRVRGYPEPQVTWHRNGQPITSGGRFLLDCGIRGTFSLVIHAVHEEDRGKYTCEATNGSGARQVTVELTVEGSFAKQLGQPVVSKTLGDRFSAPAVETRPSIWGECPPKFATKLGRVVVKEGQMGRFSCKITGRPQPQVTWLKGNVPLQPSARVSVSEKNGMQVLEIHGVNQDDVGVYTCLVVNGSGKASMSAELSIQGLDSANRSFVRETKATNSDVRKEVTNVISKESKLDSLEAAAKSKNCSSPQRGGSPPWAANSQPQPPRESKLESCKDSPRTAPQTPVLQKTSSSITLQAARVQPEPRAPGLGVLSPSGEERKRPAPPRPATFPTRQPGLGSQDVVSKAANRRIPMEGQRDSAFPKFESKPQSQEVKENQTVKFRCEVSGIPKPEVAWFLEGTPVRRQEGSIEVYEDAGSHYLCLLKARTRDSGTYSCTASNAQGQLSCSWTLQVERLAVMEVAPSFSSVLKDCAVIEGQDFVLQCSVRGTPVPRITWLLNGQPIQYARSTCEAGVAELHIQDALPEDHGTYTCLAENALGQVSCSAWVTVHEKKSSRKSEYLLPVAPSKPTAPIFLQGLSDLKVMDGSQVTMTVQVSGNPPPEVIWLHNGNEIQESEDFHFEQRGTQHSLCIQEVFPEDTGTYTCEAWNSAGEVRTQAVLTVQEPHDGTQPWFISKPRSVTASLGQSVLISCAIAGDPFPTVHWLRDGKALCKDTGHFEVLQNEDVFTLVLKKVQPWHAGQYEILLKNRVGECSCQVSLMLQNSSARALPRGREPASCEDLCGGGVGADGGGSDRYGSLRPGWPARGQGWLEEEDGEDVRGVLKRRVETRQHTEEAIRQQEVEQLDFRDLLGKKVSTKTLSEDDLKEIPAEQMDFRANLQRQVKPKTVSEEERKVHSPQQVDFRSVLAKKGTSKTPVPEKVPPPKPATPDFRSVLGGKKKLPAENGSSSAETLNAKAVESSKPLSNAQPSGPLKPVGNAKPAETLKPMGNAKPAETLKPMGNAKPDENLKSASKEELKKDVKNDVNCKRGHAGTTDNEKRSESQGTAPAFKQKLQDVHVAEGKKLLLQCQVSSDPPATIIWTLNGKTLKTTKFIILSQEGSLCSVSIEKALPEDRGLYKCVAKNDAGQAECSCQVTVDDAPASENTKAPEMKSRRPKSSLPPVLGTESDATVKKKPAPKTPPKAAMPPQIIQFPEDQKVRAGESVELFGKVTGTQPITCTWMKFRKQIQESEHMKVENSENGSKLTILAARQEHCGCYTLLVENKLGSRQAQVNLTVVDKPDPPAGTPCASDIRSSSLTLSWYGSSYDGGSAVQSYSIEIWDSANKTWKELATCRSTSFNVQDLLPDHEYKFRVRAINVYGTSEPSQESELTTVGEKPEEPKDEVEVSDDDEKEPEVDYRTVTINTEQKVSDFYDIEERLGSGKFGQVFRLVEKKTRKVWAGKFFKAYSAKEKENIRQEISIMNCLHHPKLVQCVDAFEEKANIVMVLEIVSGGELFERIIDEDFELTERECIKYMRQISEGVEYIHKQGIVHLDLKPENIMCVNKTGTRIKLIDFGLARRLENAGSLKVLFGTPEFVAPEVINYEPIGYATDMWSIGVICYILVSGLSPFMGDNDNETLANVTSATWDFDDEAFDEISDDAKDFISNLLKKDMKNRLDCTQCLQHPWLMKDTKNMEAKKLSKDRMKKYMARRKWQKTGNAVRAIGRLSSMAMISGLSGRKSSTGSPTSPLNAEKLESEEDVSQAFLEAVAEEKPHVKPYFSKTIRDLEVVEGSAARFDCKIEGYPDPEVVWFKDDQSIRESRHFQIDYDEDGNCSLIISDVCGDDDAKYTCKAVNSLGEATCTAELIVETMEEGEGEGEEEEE
FES, sequence (P07332 whole entry): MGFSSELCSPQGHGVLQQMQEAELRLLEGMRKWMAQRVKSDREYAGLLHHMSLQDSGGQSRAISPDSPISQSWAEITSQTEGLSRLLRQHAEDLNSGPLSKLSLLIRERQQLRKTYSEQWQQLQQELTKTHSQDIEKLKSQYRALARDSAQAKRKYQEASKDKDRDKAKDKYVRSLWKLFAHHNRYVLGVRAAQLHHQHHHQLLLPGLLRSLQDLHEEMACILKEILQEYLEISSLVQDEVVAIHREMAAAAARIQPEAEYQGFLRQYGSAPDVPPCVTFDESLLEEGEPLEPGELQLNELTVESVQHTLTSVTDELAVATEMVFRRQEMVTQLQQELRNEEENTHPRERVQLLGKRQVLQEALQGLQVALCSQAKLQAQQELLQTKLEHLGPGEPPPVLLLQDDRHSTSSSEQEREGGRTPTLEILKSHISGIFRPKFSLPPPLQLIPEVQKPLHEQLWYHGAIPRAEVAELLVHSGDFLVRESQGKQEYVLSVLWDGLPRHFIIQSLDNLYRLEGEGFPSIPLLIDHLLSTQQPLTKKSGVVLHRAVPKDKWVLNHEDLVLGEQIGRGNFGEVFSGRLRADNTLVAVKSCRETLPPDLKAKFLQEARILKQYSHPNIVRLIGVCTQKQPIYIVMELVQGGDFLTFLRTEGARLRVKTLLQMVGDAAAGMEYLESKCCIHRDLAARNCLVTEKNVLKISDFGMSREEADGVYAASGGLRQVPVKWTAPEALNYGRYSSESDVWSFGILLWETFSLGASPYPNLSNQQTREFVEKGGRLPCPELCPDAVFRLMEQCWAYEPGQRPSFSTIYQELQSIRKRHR
BRAF(V600E), sequence (P15056 whole entry V600E): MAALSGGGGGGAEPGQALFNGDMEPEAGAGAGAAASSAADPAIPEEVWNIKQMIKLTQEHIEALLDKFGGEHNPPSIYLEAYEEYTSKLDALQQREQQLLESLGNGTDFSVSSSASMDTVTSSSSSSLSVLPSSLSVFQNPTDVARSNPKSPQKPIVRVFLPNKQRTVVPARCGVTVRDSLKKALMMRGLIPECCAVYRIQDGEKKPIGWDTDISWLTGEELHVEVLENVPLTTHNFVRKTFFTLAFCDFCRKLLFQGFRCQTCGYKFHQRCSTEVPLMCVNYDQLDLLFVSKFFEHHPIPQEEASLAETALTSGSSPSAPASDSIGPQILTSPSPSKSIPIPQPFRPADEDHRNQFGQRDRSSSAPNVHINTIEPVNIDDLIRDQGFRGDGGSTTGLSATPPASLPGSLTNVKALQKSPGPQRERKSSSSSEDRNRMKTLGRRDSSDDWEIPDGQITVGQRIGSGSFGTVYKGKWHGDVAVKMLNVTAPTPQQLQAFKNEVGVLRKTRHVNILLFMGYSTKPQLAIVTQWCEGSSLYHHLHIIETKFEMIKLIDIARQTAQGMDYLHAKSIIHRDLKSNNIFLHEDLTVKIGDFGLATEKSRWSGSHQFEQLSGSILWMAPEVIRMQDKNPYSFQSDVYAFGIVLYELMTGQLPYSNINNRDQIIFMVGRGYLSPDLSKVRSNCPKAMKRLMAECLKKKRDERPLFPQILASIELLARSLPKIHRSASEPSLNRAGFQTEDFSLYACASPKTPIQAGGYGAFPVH
MAP3K4, sequence (Q9Y6R4 whole entry): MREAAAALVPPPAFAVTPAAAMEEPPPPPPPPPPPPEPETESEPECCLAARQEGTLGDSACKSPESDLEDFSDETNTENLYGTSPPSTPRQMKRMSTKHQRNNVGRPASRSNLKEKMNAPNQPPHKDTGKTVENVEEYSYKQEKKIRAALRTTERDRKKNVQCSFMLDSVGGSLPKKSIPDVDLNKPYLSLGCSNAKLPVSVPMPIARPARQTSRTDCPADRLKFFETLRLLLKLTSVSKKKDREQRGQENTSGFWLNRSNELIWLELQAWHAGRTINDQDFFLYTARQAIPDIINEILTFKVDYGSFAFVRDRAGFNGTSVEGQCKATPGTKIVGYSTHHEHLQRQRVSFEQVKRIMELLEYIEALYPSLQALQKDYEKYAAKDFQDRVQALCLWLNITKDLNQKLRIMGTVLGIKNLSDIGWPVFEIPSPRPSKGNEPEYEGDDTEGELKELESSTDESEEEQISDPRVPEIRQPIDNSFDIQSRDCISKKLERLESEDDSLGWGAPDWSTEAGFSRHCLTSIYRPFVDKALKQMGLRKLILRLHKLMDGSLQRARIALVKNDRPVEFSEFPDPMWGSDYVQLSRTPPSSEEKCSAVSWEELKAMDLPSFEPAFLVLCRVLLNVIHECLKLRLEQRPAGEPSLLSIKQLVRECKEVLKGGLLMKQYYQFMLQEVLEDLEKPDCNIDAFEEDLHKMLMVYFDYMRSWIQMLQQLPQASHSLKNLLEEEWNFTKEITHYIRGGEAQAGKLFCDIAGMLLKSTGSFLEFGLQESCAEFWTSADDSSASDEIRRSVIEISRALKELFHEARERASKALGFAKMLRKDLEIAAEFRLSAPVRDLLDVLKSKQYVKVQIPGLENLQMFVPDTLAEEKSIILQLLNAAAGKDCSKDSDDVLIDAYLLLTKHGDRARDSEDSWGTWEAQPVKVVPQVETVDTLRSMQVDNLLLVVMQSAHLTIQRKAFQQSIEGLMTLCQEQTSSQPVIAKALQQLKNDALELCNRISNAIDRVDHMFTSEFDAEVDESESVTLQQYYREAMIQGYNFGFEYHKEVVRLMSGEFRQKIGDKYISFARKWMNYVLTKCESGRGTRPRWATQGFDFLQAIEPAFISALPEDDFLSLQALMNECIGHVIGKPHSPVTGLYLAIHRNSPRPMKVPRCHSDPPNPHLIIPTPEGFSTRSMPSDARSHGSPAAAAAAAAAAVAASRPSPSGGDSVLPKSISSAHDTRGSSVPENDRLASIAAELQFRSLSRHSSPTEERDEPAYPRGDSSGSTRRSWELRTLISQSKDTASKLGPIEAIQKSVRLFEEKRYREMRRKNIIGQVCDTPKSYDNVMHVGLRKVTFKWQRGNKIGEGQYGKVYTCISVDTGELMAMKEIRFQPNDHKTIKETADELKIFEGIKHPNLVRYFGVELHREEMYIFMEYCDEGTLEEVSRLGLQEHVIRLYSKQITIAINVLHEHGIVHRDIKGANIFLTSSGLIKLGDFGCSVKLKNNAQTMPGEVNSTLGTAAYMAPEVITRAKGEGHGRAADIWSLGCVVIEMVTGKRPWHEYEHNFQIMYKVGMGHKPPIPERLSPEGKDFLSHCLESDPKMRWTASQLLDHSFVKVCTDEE
BRAF, sequence (P15056 whole entry): as the sequence (P15056 whole entry V600E) above, with E600V counted along it

Which remaining binding at 1 µM (CTK) does the source give for `Cn1c(=O)[nH]c2ccc(-c3cccc(C(=O)NC4CCn5ccnc5C4)c3)cc21` (stereo not drawn) [Z36-MP5] here?
The remaining binding at 1 µM was 61%.

What about the remaining binding at 1 µM (SNRK) of the same compound?
Its remaining binding at 1 µM is 78%.

What about the remaining binding at 1 µM (BRAF) of the same compound?
Its remaining binding at 1 µM is 88%.

What about the remaining binding at 1 µM (BRK) of the same compound?
The remaining binding at 1 µM was 100%.

What about the remaining binding at 1 µM (MAP3K4) of the same compound?
Its remaining binding at 1 µM is 63%.

What about the remaining binding at 1 µM (KIT-autoinhibited) of the same compound?
Its remaining binding at 1 µM is 57%.

What about the remaining binding at 1 µM [1] of the same compound?
The remaining binding at 1 µM was 63%.

What about the remaining binding at 1 µM (PRKCI) of the same compound?
The remaining binding at 1 µM was 71%.

What about the remaining binding at 1 µM (CAMK4) of the same compound?
The remaining binding at 1 µM was 98%.

And the remaining binding at 1 µM (S6K1)?
Its remaining binding at 1 µM is 50%.

And the remaining binding at 1 µM (MEK3)?
The remaining binding at 1 µM was 66%.

What about the remaining binding at 1 µM (ERK5) of the same compound?
Its remaining binding at 1 µM is 86%.

And the remaining binding at 1 µM (RIPK4)?
The remaining binding at 1 µM was 99%.

What about the remaining binding at 1 µM (IGF1R) of the same compound?
Its remaining binding at 1 µM is 97%.

And the remaining binding at 1 µM (FES)?
The remaining binding at 1 µM was 73%.

What about the remaining binding at 1 µM (MYLK) of the same compound?
Its remaining binding at 1 µM is 81%.

And the remaining binding at 1 µM (DCAMKL2)?
Its remaining binding at 1 µM is 90%.

What about the remaining binding at 1 µM (BRAF(V600E)) of the same compound?
Its remaining binding at 1 µM is 89%.

And the remaining binding at 1 µM (ROCK2)?
The remaining binding at 1 µM was 61%.

What about the remaining binding at 1 µM [2] of the same compound?
The remaining binding at 1 µM was 56%.

And the remaining binding at 1 µM (AURKB)?
The remaining binding at 1 µM was 84%.

And the remaining binding at 1 µM (ACVR1)?
Its remaining binding at 1 µM is 47%.

What about the remaining binding at 1 µM (GCN2(Kin.Dom.2,S808G)) of the same compound?
The remaining binding at 1 µM was 94%.

And the remaining binding at 1 µM (PIM2)?
Its remaining binding at 1 µM is 91%.
